Data as given in patent US20070191491A1, “[…] OF STORED GOODS, ENCLOSURES, […] WORKS OF ART, WITH SULPHUR COMPOUNDS” (Arkema France, priority 2002, published 2007).

Columns and labels:
Sitophilus orizae = assay: Efficacy of DMDS in a silo of wheat grains infested with Sitophilus orizae; assay type: in vivo; conditions: same trial conditions, 20° C.
Description: (§1) These two organisms are Sitophilus granarius and Sitophilus orizae.
(§2) Dimensions of the silo: • total height: 40 cm • total volume: 3.3 l • filling level: 75%, that is a grain height of […].
(§3) 99 mg of pure DMDS are deposited at the surface of the grains using a syringe. The samples collected consist of bundles of 50 g of wheat containing all the stages of development of the pathogenic organisms. After degassing by aeration of the silo at the times T, the bundles of wheat are screened and the adults are counted immediately after screening (D+0) and after 14 days (D+14). The wheat containing the other stages of development is then examined for 5 weeks.
The products CT of the concentrations C of DMDS by the times of measurement T are determined and the efficacy of the treatment in relation to the 2 pathogenic organisms studied for all the stages of development is monitored as a function of these products CT. […]
Under the same trial conditions, this time on organisms of the Sitophilus orizae type, similar results are obtained. The pesticidal efficacy of DMDS against the pathogenic organism Sitophilus orizae is evaluated in terms of the product CT at about 100 ghm^−3 (useful CT).

Sitophilus granarius = assay: Efficacy of DMDS in a silo of wheat grains infested with Sitophilus granarius (adult mortality, % NER); assay type: in vivo; conditions: for Total No. of insects emerged: untreated control 271
Description: as §1, §2, §3
The products CT of the concentrations C of DMDS by the times of measurement T are determined and the efficacy of the treatment in relation to the 2 pathogenic organisms studied for all the stages of development is monitored as a function of these products CT. The results are expressed: • as a percentage of the adult mortality at the times (D+0) and (D+14). • as a percentage of net emergence reduction (% NER) relative to an untreated control batch for the different stages of development of these organisms (that is to say eggs and 2nd generation, eggs and 1st stage larvae, 1st and 2nd stage larvae, 2nd and 3rd stage larvae, 3rd and 4th stage larvae, 4th stage larvae and nymphs), which corresponds to the following formula: % NER=(number of insects which emerged live from the control batch−number of insects which emerged live from the treated batch)/(number of insects which emerged live from the control batch).

CSSC [DMDS, dimethyl disulphide]
pesticidal efficacy in terms of the product CT (useful CT) (Sitophilus orizae): about 100 ghm^−3
% NER Eggs and 2nd generation (Sitophilus granarius; CT 5.8 gh.m^−3, 20° C.): 13%
% NER Eggs and Ist stage larvae (Sitophilus granarius; CT 5.8 gh.m^−3, 20° C.): 41%
% NER IIIrd and IVth stage larvae (Sitophilus granarius; CT 5.8 gh.m^−3, 20° C.): 3%
% NER IInd and IIIrd stage larvae (Sitophilus granarius; CT 5.8 gh.m^−3, 20° C.): 13%
% NER IVth stage larvae and nymphs (Sitophilus granarius; CT 5.8 gh.m^−3, 20° C.): 21%
% NER Ist and IInd stage larvae (Sitophilus granarius; CT 5.8 gh.m^−3, 20° C.): 20%
% adult mortality D + 0 (Sitophilus granarius; CT 5.8 gh.m^−3, 20° C.): 0%
% adult mortality D + 14 (Sitophilus granarius; CT 5.8 gh.m^−3, 20° C.): 8%
Total % NER (Sitophilus granarius; CT 5.8 gh.m^−3, 20° C.): 25%
Total No. of insects emerged (Sitophilus granarius; CT 5.8 gh.m^−3, 20° C.): 202
% NER Eggs and 2nd generation (Sitophilus granarius; CT 6.1 gh.m^−3, 20° C.): 33%
% NER Eggs and Ist stage larvae (Sitophilus granarius; CT 6.1 gh.m^−3, 20° C.): 5%
% NER IIIrd and IVth stage larvae (Sitophilus granarius; CT 6.1 gh.m^−3, 20° C.): 19%
% NER IInd and IIIrd stage larvae (Sitophilus granarius; CT 6.1 gh.m^−3, 20° C.): 16%
% NER IVth stage larvae and nymphs (Sitophilus granarius; CT 6.1 gh.m^−3, 20° C.): 54%
% NER Ist and IInd stage larvae (Sitophilus granarius; CT 6.1 gh.m^−3, 20° C.): 80%
% adult mortality D + 0 (Sitophilus granarius; CT 6.1 gh.m^−3, 20° C.): 3%
% adult mortality D + 14 (Sitophilus granarius; CT 6.1 gh.m^−3, 20° C.): 9%
Total % NER (Sitophilus granarius; CT 6.1 gh.m^−3, 20° C.): 23%
Total No. of insects emerged (Sitophilus granarius; CT 6.1 gh.m^−3, 20° C.): 208
% NER Eggs and 2nd generation (Sitophilus granarius; CT 15.0 gh.m^−3, 20° C.): 25%
% NER Eggs and Ist stage larvae (Sitophilus granarius; CT 15.0 gh.m^−3, 20° C.): 54%
% NER IIIrd and IVth stage larvae (Sitophilus granarius; CT 15.0 gh.m^−3, 20° C.): 26%
% NER IInd and IIIrd stage larvae (Sitophilus granarius; CT 15.0 gh.m^−3, 20° C.): 71%
% NER IVth stage larvae and nymphs (Sitophilus granarius; CT 15.0 gh.m^−3, 20° C.): 75%
% NER Ist and IInd stage larvae (Sitophilus granarius; CT 15.0 gh.m^−3, 20° C.): 88%
% adult mortality D + 0 (Sitophilus granarius; CT 15.0 gh.m^−3, 20° C.): 64%
% adult mortality D + 14 (Sitophilus granarius; CT 15.0 gh.m^−3, 20° C.): 93%
Total % NER (Sitophilus granarius; CT 15.0 gh.m^−3, 20° C.): 54%
Total No. of insects emerged (Sitophilus granarius; CT 15.0 gh.m^−3, 20° C.): 126
% NER Eggs and 2nd generation (Sitophilus granarius; CT 26.9 gh.m^−3, 20° C.): 20%
% NER Eggs and Ist stage larvae (Sitophilus granarius; CT 26.9 gh.m^−3, 20° C.): 79%
% NER IIIrd and IVth stage larvae (Sitophilus granarius; CT 26.9 gh.m^−3, 20° C.): 65%
% NER IInd and IIIrd stage larvae (Sitophilus granarius; CT 26.9 gh.m^−3, 20° C.): 94%
% NER IVth stage larvae and nymphs (Sitophilus granarius; CT 26.9 gh.m^−3, 20° C.): 92%
% NER Ist and IInd stage larvae (Sitophilus granarius; CT 26.9 gh.m^−3, 20° C.): 88%
% adult mortality D + 0 (Sitophilus granarius; CT 26.9 gh.m^−3, 20° C.): 92%
% adult mortality D + 14 (Sitophilus granarius; CT 26.9 gh.m^−3, 20° C.): 92%
Total % NER (Sitophilus granarius; CT 26.9 gh.m^−3, 20° C.): 72%
Total No. of insects emerged (Sitophilus granarius; CT 26.9 gh.m^−3, 20° C.): 75
% NER Eggs and 2nd generation (Sitophilus granarius; CT 50.5 gh.m^−3, 20° C.): 93%
% NER Eggs and Ist stage larvae (Sitophilus granarius; CT 50.5 gh.m^−3, 20° C.): 100%
% NER IIIrd and IVth stage larvae (Sitophilus granarius; CT 50.5 gh.m^−3, 20° C.): 97%
% NER IInd and IIIrd stage larvae (Sitophilus granarius; CT 50.5 gh.m^−3, 20° C.): 100%
% NER IVth stage larvae and nymphs (Sitophilus granarius; CT 50.5 gh.m^−3, 20° C.): 100%
% NER Ist and IInd stage larvae (Sitophilus granarius; CT 50.5 gh.m^−3, 20° C.): 100%
% adult mortality D + 0 (Sitophilus granarius; CT 50.5 gh.m^−3, 20° C.): 100%
% adult mortality D + 14 (Sitophilus granarius; CT 50.5 gh.m^−3, 20° C.): 100%
Total % NER (Sitophilus granarius; CT 50.5 gh.m^−3, 20° C.): 99%
Total No. of insects emerged (Sitophilus granarius; CT 50.5 gh.m^−3, 20° C.): 4
% NER Eggs and 2nd generation (Sitophilus granarius; CT 88.4 gh.m^−3, 20° C.): 95%
% NER Eggs and Ist stage larvae (Sitophilus granarius; CT 88.4 gh.m^−3, 20° C.): 100%
% NER IIIrd and IVth stage larvae (Sitophilus granarius; CT 88.4 gh.m^−3, 20° C.): 100%
% NER IInd and IIIrd stage larvae (Sitophilus granarius; CT 88.4 gh.m^−3, 20° C.): 100%
% NER IVth stage larvae and nymphs (Sitophilus granarius; CT 88.4 gh.m^−3, 20° C.): 100%
% NER Ist and IInd stage larvae (Sitophilus granarius; CT 88.4 gh.m^−3, 20° C.): 100%
% adult mortality D + 0 (Sitophilus granarius; CT 88.4 gh.m^−3, 20° C.): 100%
% adult mortality D + 14 (Sitophilus granarius; CT 88.4 gh.m^−3, 20° C.): 100%
Total % NER (Sitophilus granarius; CT 88.4 gh.m^−3, 20° C.): 99%
Total No. of insects emerged (Sitophilus granarius; CT 88.4 gh.m^−3, 20° C.): 2
% NER Eggs and 2nd generation (Sitophilus granarius; CT 160.4 gh.m^−3, 20° C.): 100%
% NER Eggs and Ist stage larvae (Sitophilus granarius; CT 160.4 gh.m^−3, 20° C.): 100%
% NER IIIrd and IVth stage larvae (Sitophilus granarius; CT 160.4 gh.m^−3, 20° C.): 100%
% NER IInd and IIIrd stage larvae (Sitophilus granarius; CT 160.4 gh.m^−3, 20° C.): 100%
% NER IVth stage larvae and nymphs (Sitophilus granarius; CT 160.4 gh.m^−3, 20° C.): 100%
% NER Ist and IInd stage larvae (Sitophilus granarius; CT 160.4 gh.m^−3, 20° C.): 100%
% adult mortality D + 0 (Sitophilus granarius; CT 160.4 gh.m^−3, 20° C.): 100%
% adult mortality D + 14 (Sitophilus granarius; CT 160.4 gh.m^−3, 20° C.): 100%
Total % NER (Sitophilus granarius; CT 160.4 gh.m^−3, 20° C.): 100%
Total No. of insects emerged (Sitophilus granarius; CT 160.4 gh.m^−3, 20° C.): 0
mortality for the majority of the stages (Sitophilus granarius; CT values greater than 50 gh.m^−3): 100%
mortality for all the stages of development (Sitophilus granarius; product CT of 160 gh.m^−3): 100%
pesticidal efficacy in terms of the product CT (useful CT) (Sitophilus granarius; wheat silo, 20° C.): about 100 ghm^−3
